Converted amounts (≈) assume the structure as drawn. Like-named read-outs stand apart in the source and are kept apart here.
Assays:
MK2 enzyme = molecular target: T1, MK2 enzyme (Homo sapiens, UniProt P49137); assay: MK2 enzyme activity, IMAP fluorescence polarization assay; type: biochemical
T1 construct: MK2 enzyme (active enzyme (peptide 46-end (Millipore))); purchased Millipore
From the text: In another assay the MK2 kinase activity can be determined by using an IMAP assay (Immobilized Metal Assay for Phosphochemicals—based coupled assay). IMAP is a homogeneous fluorescence polarization (FP) assay based on affinity capture of phosphorylated peptide substrates. IMAP uses fluorescein-labeled peptide substrates that, upon phosphorylation by a protein kinase, bind to so called IMAP nanoparticles, which are derivatized with trivalent metal complexes. […] In such an assay, MK2 phosphorylates a fluorescein-labeled peptide substrate (see example 14).
MK2 enzyme activity is measured using the IMAP (immobilized metal ion affinity-based fluorescence polarization) assay as outlined below.
The enzyme is diluted to 100 U/mL the day before use in KR buffer (10 mM Tris-HCl, 10 mM MgCl2, 0.01% Tween-20, 0.05% NaN3, 2 mM DTT, pH 7.2) and stored overnight at −20° C.
The dilutions in DMSO are then diluted 50-fold in KR-buffer of which 5 μl is used in the assay, leading to a final compound concentration range in the assay from 10 μM to 0.316 nM.
After 60 min incubation at room temperature in the dark the FP signal is read. Fluorescence at 535 nm is measured using parallel and perpendicular filters to determine differences in rotation due to binding of the phosphorylated substrate peptide to the beads. Values are calculated as percentage of the difference in readout (ΔmPi) of the controls with and without ATP. EC50 values are determined by curve fitting of the experimental results using Activity Base.

[1] = Solubility determination of MK2 inhibitors (kinetic aqueous solubility, UPLC); type: physicochemical; conditions: aqueous buffer (system solution from pION inc.), 22 °C, pH 7.4, aqueous buffer, kinetic from dmso stock, pH 7.4, room temperature, about 1% DMSO, 24 h shaking; read-out: solubility
Protocol: The solubility can be determined using the Automated Kinetic Aqueous Solubility (AKASol) method, which is an HPLC-UV based method. The method is derived from the classical saturated shake-flask solubility method which has been adapted to the 96-well microtitre plate format, allowing the use of DMSO stock solutions. The solubility is determined by measuring the amount of compound in a saturated aqueous solution, quantified by an external calibration curve of the compound dissolved in DMSO. The solubility (mg/L) is measured at pH 7.4, at room temperature and the final concentration of DMSO in the sample solution is 1%.
The samples were prepared from 10 mM DMSO stock solutions. For each compound under investigation, a volume (9 μL) of the DMSO stock solution is transferred from the DMSO stock solution into 891 μL of buffer solution (system solution from pION inc.) in a 96 deep well plate, which equates to approximately 1% DMSO, using the Packard Multiprobe II robot liquid handling system. The pH of the buffer is manually adjusted at pH 7.4 by adding NaOH. This procedure is done in duplicate for each sample. After shaking for 24 h on a vortex mixer (Heidolph, Titramax 101) at 450 rpm and at room temperature (21-23° C.), 300 uL of the incubated sample is transferred from the deep well plate to a filter plate (PVDF, 0.45 um) on a vacuum manifold. To the filtrate (150 uL) 1-propanol (50 uL) is added to suppress precipitation and this solution is then analysed by UPLC. The solubility is determined using the calibration line previously prepared.
Preparation of the Standards and Built up of a Calibration Line
The calibration line is built with different concentrations of the test compound (standards), prepared from the same 10 mM DMSO stock solution. A volume (7 uL) from the same DMSO stock solution was diluted with DMSO (273 uL) leading to a solution with concentration of 0.25 mM. From this solution, three different injection volumes (0.2, 1, 1.8 uL) were injected on UPLC. The respective peak areas are plotted against amount of compound to build up the calibration line. The calibration line is used to determine the amount of dissolved compound in each sample, selecting the injection that gave peak areas closest to the peak area range of the calibration standards.

[2] = MK2 IMAP assay, 1 μM ATP, 30 min pre-incubation, 2 h room temperature, read-out: pEC50 value (converted)

T1 sequence (P49137 46-400 limits assumed): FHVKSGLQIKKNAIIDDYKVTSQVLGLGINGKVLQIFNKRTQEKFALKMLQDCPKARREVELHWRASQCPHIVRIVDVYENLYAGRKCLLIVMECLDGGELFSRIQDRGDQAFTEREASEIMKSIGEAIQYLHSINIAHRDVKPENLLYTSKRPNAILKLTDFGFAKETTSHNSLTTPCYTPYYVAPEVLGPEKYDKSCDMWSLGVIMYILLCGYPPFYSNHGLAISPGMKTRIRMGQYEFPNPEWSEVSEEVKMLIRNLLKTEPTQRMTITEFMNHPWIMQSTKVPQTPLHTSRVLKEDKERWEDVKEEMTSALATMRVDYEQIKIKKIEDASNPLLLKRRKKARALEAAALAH

| EC50 (MK2 enzyme; [2]) | solubility at 24 h [1] | Compound | EC50 (MK2 enzyme) |
| --- | --- | --- | --- |
| 3.16 to 31.6 nM | ≥ 50 µg/mL | CC(C)Cc1ccc(-c2nccc(-c3cc4c([nH]3)C3(CCNCC3)CNC4=O)n2)cc1 [1—23, 2′-(2-(4-isobutylphenyl)pyrimidin-4-yl)-5′,6′-dihydrospiro[piperidine-4,7′-pyrrolo[3,2-c]pyridin]-4′(1′H)-one] | – |
| 3.16 to 31.6 nM | ≥ 50 µg/mL | O=C1NCC2(CCNCC2)c2[nH]c(-c3ccnc(-c4ccc5ccccc5c4)n3)cc21 [1—24, 2′-(2-(naphthalen-2-yl)pyrimidin-4-yl)-5′,6′-dihydrospiro[piperidine-4,7′-pyrrolo[3,2-c]pyridin]-4′(1′H)-one] | – |
| 3.16 to 31.6 nM | ≥ 50 µg/mL | O=C1NCC2(CCNCC2)c2[nH]c(-c3ccnc(-c4cc(Cl)cc(Cl)c4)n3)cc21 [1—25, 2′-(2-(3,5-dichlorophenyl)pyrimidin-4-yl)-5′,6′-dihydrospiro[piperidine-4,7′-pyrrolo[3,2-c]pyridin]-4′(1′H)-one] | – |
| 31.6 to 316 nM | 20 to 50 µg/mL (≈ 44.5 to 111 µM) | O=C1NCC2(CCNCC2)c2[nH]c(-c3ccnc(-c4ccc5oc6ccccc6c5c4)n3)cc21 [1—26, 2′-(2-(dibenzo[b,d]furan-2-yl)pyrimidin-4-yl)-5′,6′-dihydrospiro[piperidine-4,7′-pyrrolo[3,2-c]pyridin]-4′(1′H)-one] | – |
| 3.16 to 31.6 nM | ≥ 50 µg/mL | O=C1NCC2(CCNCC2)c2[nH]c(-c3ccnc(-c4cc5ccccc5s4)n3)cc21 [1—28, 2′-(2-(benzo[b]thiophen-2-yl)pyrimidin-4-yl)-5′,6′-dihydrospiro[piperidine-4,7′-pyrrolo[3,2-c]pyridin]-4′(1′H)-one] | – |
| 3.16 to 31.6 nM | ≥ 50 µg/mL | NC(=O)c1cccc(-c2nccc(-c3cc4c([nH]3)C3(CCNCC3)CNC4=O)n2)c1 [1—29, 3-(4-(4′-oxo-1′,4′,5′,6′-tetrahydrospiro[piperidine-4,7′-pyrrolo[3,2-c]pyridine]-2′-yl)pyrimidin-2-yl)benzamide] | – |
| 3.16 to 31.6 nM | ≥ 50 µg/mL | CC(=O)c1cccc(-c2nccc(-c3cc4c([nH]3)C3(CCNCC3)CNC4=O)n2)c1 [1—30, 2′-(2-(3-acetylphenyl)pyrimidin-4-yl)-5′,6′-dihydrospiro[piperidine-4,7′-pyrrolo[3,2-c]pyridin]-4′(1′H)-one] | – |
| 3.16 to 31.6 nM | ≥ 50 µg/mL | O=C(NC1CCCCC1)c1ccc(-c2nccc(-c3cc4c([nH]3)C3(CCNCC3)CNC4=O)n2)cc1Cl [1—31, 2-chloro-N-cyclohexyl-4-(4-(4′-oxo-1′,4′,5′,6′-tetrahydrospiro[piperidine-4,7′-pyrrolo[3,2-c]pyridine]-2′-yl)pyrimidin-2-yl)benzamide] | – |
| 3.16 to 31.6 nM | ≥ 50 µg/mL | O=C1NCC2(CCNCC2)c2[nH]c(-c3ccnc(-c4ccc(Cl)cc4F)n3)cc21 [1—32, 2′-(2-(4-chloro-2-fluorophenyl)pyrimidin-4-yl)-5′,6′-dihydrospiro[piperidine-4,7′-pyrrolo[3,2-c]pyridin]-4′(1′H)-one] | – |
| 31.6 to 316 nM | ≥ 50 µg/mL | O=C1NCC2(CCNCC2)c2[nH]c(-c3ccnc(-c4cccc(-c5ccccc5)c4)n3)cc21 [1—33, 2′-(2-(biphenyl-3-yl)pyrimidin-4-yl)-5′,6′-dihydrospiro[piperidine-4,7′-pyrrolo[3,2-c]pyridin]-4′(1′H)-one] | – |
| 31.6 to 316 nM | ≥ 50 µg/mL | O=C1NCC2(CCNCC2)c2[nH]c(-c3ccnc(-c4cc(C(F)(F)F)cc(C(F)(F)F)c4)n3)cc21 [1—34, 2′-(2-(3,5-bis(trifluoromethyl)phenyl)pyrimidin-4-yl)-5′,6′-dihydrospiro[piperidine-4,7′-pyrrolo[3,2-c]pyridin]-4′(1′H)-one] | – |
| 3.16 to 31.6 nM | ≥ 50 µg/mL | O=C1NCC2(CCNCC2)c2[nH]c(-c3ccnc(-c4cccc(C(F)(F)F)c4)n3)cc21 [1—35, 2′-(2-(3-(trifluoromethyl)phenyl)pyrimidin-4-yl)-5′,6′-dihydrospiro[piperidine-4,7′-pyrrolo[3,2-c]pyridin]-4′(1′H)-one] | – |
| 3.16 to 31.6 nM | ≥ 50 µg/mL | O=C(NC1CCCCC1)c1ccc(-c2nccc(-c3cc4c([nH]3)C3(CCNCC3)CNC4=O)n2)cc1 [1—36, N-cyclohexyl-4-(4-(4′-oxo-1′,4′,5′,6′-tetrahydrospiro[piperidine-4,7′-pyrrolo[3,2-c]pyridine]-2′-yl)pyrimidin-2-yl)benzamide] | – |
| 3.16 to 31.6 nM | 20 to 50 µg/mL (≈ 47.5 to 119 µM) | O=C1NCC2(CCNCC2)c2[nH]c(-c3nc(-c4ccc5c(c4)OCO5)ncc3F)cc21 [4—2, 2′-(2-(benzo[d][1,3]dioxol-5-yl)-5-fluoropyrimidin-4-yl)-5′,6′-dihydrospiro[piperidine-4,7′-pyrrolo[3,2-c]pyridin]-4′(1′H)-one] | – |
| ≤ 3.16 nM | ≥ 50 µg/mL | O=C1NCC2(CCNCC2)c2[nH]c(-c3nc(-c4cnc5ccccc5c4)ncc3F)cc21 [4—3, 2′-(5-fluoro-2-(quinolin-3-yl)pyrimidin-4-yl)-5′,6′-dihydrospiro[piperidine-4,7′-pyrrolo[3,2-c]pyridin]-4′(1′H)-one] | – |
| 3.16 to 31.6 nM | 20 to 50 µg/mL (≈ 46 to 115 µM) | CNC(=O)c1ccc(-c2ncc(F)c(-c3cc4c([nH]3)C3(CCNCC3)CNC4=O)n2)cc1 [4—4, 4-(5-fluoro-4-(4′-oxo-1′,4′,5′,6′-tetrahydrospiro[piperidine-4,7′-pyrrolo[3,2-c]pyridine]-2′-yl)pyrimidin-2-yl)-N-methylbenzamide] | – |
| 3.16 to 31.6 nM | ≥ 50 µg/mL | O=C1NCC2(CCNCC2)c2[nH]c(-c3nc(-c4ccc(Cl)cc4F)ncc3F)cc21 [4—5, 2′-(2-(4-chloro-2-fluorophenyl)-5-fluoropyrimidin-4-yl)-5′,6′-dihydrospiro[piperidine-4,7′-pyrrolo[3,2-c]pyridin]-4′(1′H)-one] | – |
| 3.16 to 31.6 nM | ≥ 50 µg/mL | O=C1NCC2(CCCNC2)c2[nH]c(-c3ccnc(-c4ccc5c(c4)OCO5)n3)cc21 (centres unmarked) [5—2, 2′-(2-(benzo[d][1,3]dioxol-5-yl)pyrimidin-4-yl)-5′,6′-dihydrospiro[piperidine-3,7′-pyrrolo[3,2-c]pyridin]-4′(1′H)-one] | – |
| 3.16 to 31.6 nM | ≥ 50 µg/mL | O=C1NCC2(CCNC2)c2[nH]c(-c3ccnc(-c4ccc5c(c4)OCO5)n3)cc21 (centres unmarked) [6—2, 2′-(2-(benzo[d][1,3]dioxol-5-yl)pyrimidin-4-yl)-5′,6′-dihydrospiro[pyrrolidine-3,7′-pyrrolo[3,2-c]pyridin]-4′(1′H)-one] | – |

| Compound | EC50 (MK2 enzyme; [2]) | solubility at 24 h [1] | EC50 (MK2 enzyme) |
| --- | --- | --- | --- |
| CC(C)COc1ccc(-c2nccc(-c3cc4c([nH]3)C3(CCNCC3)CNC4=O)n2)cc1 [1—27, 2′-(2-(4-isobutoxyphenyl)pyrimidin-4-yl)-5′,6′-dihydrospiro[piperidine-4,7′-pyrrolo[3,2-c]pyridin]-4′(1′H)-one] | 3.16 to 31.6 nM | ≥ 50 µg/mL | – |
| CCN1CCC2(CC1)CNC(=O)c1cc(-c3ccnc(-c4cc5ccccc5o4)n3)[nH]c12 [2—2, 2′-(2-(benzofuran-2-yl)pyrimidin-4-yl)-1-ethyl-5′,6′-dihydrospiro[piperidine-4,7′-pyrrolo[3,2-c]pyridin]-4(1′H)-one] | – | ≥ 50 µg/mL | 31.6 to 316 nM |
| CC(=O)NCCCN1CCC2(CC1)CNC(=O)c1cc(-c3ccnc(-c4cc5ccccc5o4)n3)[nH]c12 [3—2, N-(3-(2′-(2-(benzofuran-2-yl)pyrimidin-4-yl)-4′-oxo-1′,4′,5′,6′-tetrahydrospiro[piperidine-4,7′-pyrrolo[3,2-c]pyridine]-1-yl)propyl)acetamide] | 31.6 to 316 nM | ≥ 50 µg/mL | – |
